Key:
[1] = test system: bone marrow mesenchymal stromal cells (BMSC); experiment: BMSC proliferation in alginic acid gel beads (Cell Counting Kit-8); format: cell-based, Japanese white rabbit; conditions: 10 μg/ml SDF-1 or 250 μg/ml AMD3100 in alginic acid gel beads vs alginic acid only, up to 7 days, n=5
Protocol: (§1) Bone marrows were collected from a tibia of a 15-week-old Japanese white rabbit to isolate and culture bone marrow mesenchymal stromal cells (BMSC). Isolation was carried out according to the method of Wakitani et al. (Wakitani S et al., J bone Joint Surg Am, Vol. 76, p 579, 1994). The isolated cells were incubated at 37° C. under humidified 5% CO2 and maintained in monolayer culture.
(§2) Proliferation and differentiation of BMSC were tested by embedding BMSC in alginic acid gel beads. The cells were suspended in a 2% sodium alginate solution. The suspension was dripped in a CaCl2 solution with a pipette for gelation. Ten minutes later, the resulting microcapsules were washed twice with Ca/Mg-free PBS and once with DMED-HG. The resulting beads contained 1×10^6 cells per 40 μl of beads.
The alginic acid gel beads containing 10 μg/ml of SDF-1 or 250 μg/ml of AMD3100 were cultured in DMED-HG containing 10% FBS and 1% antibiotics for 3 hours, 1 day, 2 days, 3 days and 7 days. The cells collected from the alginic acid gel beads were washed with PBS for three times, incubated in 50 mM EDTA (Gibco BRL laboratories) at 37° C. under 5% CO2. Ten minutes later, the cells were centrifuged at 1,500 g for 5 minutes for cell collection and the number of live cells was counted with Cell Counting Kit-8 (Dojindo Laboratories, Tokyo, Japan).

[2] = test system: bone marrow mesenchymal stromal cells (BMSC); experiment: BMSC differentiation into chondrocytes in alginic acid gel beads; format: cell-based, Japanese white rabbit; conditions: 10 μg/ml SDF-1 or 250 μg/ml AMD3100 in alginic acid gel beads vs alginic acid only, 28 days
Protocol: as §1, §2
Differentiation into chondrocytes in the alginic acid gel beads was tested by culturing BMSC-containing beads in a DMED-HG medium containing 100 μg/ml sodium pyruvate (ICN Biomedicals, Aurora, Ohio), 40 μg/ml proline (ICN Biomedicals), 50 μg/ml ascorbate-2-phosphate (Wako, Osaka, Japan), 1×10^−7M dexamethasone (ICN Biomedicals), 1% ITS plus mix (Sigma-Aldrich, St. Louis., Mo.), 1% antibiotics and 10 ng/ml recombinant human transforming growth factor […] (R&D Systems, Minneapolis, Minn.) (dissolved with 4 mM HCl containing 1 μg/ml bovine serum albumin) for 28 days. The medium was exchanged every three days. […]

c1cc(CN2CCCNCCNCCCNCC2)ccc1CN1CCCNCCNCCCNCC1 [AMD3100]
BMSC proliferation (number of live cells) [1]: no significant difference | differentiation of BMSC into chondrocytes [2]: no difference

Reference: patent US9821027B2, “Method for regenerating cartilage comprising applying a monovalent metal salt of alginic acid and SDF-1” (Mochida Pharmaceutical Co., Ltd., priority 2011, dated 2017)
